Results reported in patent publication US4118561A, “7-(Substituted)-7H-pyrrolo[3,2-f]quinazoline-1,3-diamines” (priority 1977, dated 1978).
≈ marks a conversion by molar mass, not a printed value.

Legend:
P. vulgaris 6896 = assay: In vitro antibacterial activity (MIC), P. vulgaris 6896; conditions: Proteus vulgaris, 6896, 18 h
E. coli 9637 = assay: In vitro antibacterial activity (MIC), E. coli 9637; conditions: Escherichia coli, 9637, 18 h
S. aureus Smith = assay: In vitro antibacterial activity (MIC), S. aureus Smith; conditions: Staphylococcus aureus, 18 h
S. paratyphi 11737 = assay: In vitro antibacterial activity (MIC), S. paratyphi 11737; assay type: cell-based; conditions: Salmonella enterica, 18 h
S. aureus 53-180 = assay: In vitro antibacterial activity (MIC), S. aureus 53-180; conditions: Staphylococcus aureus, 53180, 18 h
K. pneumoniae 10031 = assay: In vitro antibacterial activity (MIC), K. pneumoniae 10031; conditions: Klebsiella pneumoniae, 10031, 18 h
N. catarrhalis 8193 = assay: In vitro antibacterial activity (MIC), N. catarrhalis 8193; conditions: 18 h

With `CCC(=O)c1ccc(-n2ccc3c4c(N)nc(N)nc4ccc32)cc1` [Example 72] the MIC (P. vulgaris 6896) was over 250 µg/mL, the MIC (E. coli 9637) was 15.6 µg/mL (≈ 47.1 µM) and the MIC (S. aureus Smith) was 31.3 µg/mL (≈ 94.5 µM). For the same compound, the MIC (S. paratyphi 11737) was over 250 µg/mL, the MIC (S. aureus 53-180) was 7.81 µg/mL (≈ 23.6 µM) and the MIC (K. pneumoniae 10031) was 31.3 µg/mL (≈ 94.5 µM). The MIC (N. catarrhalis 8193) was 0.031 µg/mL (≈ 0.0935 µM).

`N#Cc1ccccc1-n1ccc2c3c(N)nc(N)nc3ccc21` [Example 73] gave an MIC (P. vulgaris 6896) of 0.488 µg/mL (≈ 1.62 µM), an MIC (E. coli 9637) of 0.122 µg/mL (≈ 0.406 µM) and an MIC (S. aureus Smith) of 0.031 µg/mL (≈ 0.103 µM). It also gave an MIC (S. paratyphi 11737) of 0.122 µg/mL (≈ 0.406 µM), an MIC (S. aureus 53-180) of 0.0152 µg/mL (≈ 0.0506 µM) and an MIC (K. pneumoniae 10031) of 0.0152 µg/mL (≈ 0.0506 µM). For the same compound, the MIC (N. catarrhalis 8193) was 0.0038 µg/mL (≈ 0.0127 µM).

`CS(=O)(=O)c1ccc(-n2ccc3c4c(N)nc(N)nc4ccc32)cc1` [Example 74] gave an MIC (P. vulgaris 6896) of 15.6 µg/mL (≈ 44.1 µM), an MIC (E. coli 9637) of 0.976 µg/mL (≈ 2.76 µM) and an MIC (S. aureus Smith) of 0.976 µg/mL (≈ 2.76 µM). It also gave an MIC (S. paratyphi 11737) of 7.81 µg/mL (≈ 22.1 µM), an MIC (S. aureus 53-180) of 0.976 µg/mL (≈ 2.76 µM) and an MIC (K. pneumoniae 10031) of 0.244 µg/mL (≈ 0.69 µM). The MIC (N. catarrhalis 8193) was 0.0152 µg/mL (≈ 0.043 µM).

Compound `CCOC(=O)c1ccc(-n2ccc3c4c(N)nc(N)nc4ccc32)cc1` [Example 75] has an MIC (P. vulgaris 6896) of over 250 µg/mL, an MIC (E. coli 9637) of over 250 µg/mL and an MIC (S. aureus Smith) of 125 µg/mL (≈ 360 µM). For the same compound, the MIC (S. paratyphi 11737) was over 250 µg/mL, the MIC (S. aureus 53-180) was 7.81 µg/mL (≈ 22.5 µM) and the MIC (K. pneumoniae 10031) was 250 µg/mL (≈ 720 µM). The MIC (N. catarrhalis 8193) was 0.122 µg/mL (≈ 0.351 µM).

Compound `Nc1nc(N)c2c(ccc3c2ccn3-c2ccc([N+](=O)[O-])cc2[N+](=O)[O-])n1` [Example 78] has an MIC (P. vulgaris 6896) of over 250 µg/mL, an MIC (E. coli 9637) of 3.9 µg/mL (≈ 10.7 µM) and an MIC (S. aureus Smith) of 0.0076 µg/mL (≈ 0.0208 µM). For the same compound, the MIC (S. paratyphi 11737) was over 250 µg/mL, the MIC (S. aureus 53-180) was 0.0076 µg/mL (≈ 0.0208 µM) and the MIC (K. pneumoniae 10031) was 0.031 µg/mL (≈ 0.0849 µM). For the same compound, the MIC (N. catarrhalis 8193) was 0.0019 µg/mL (≈ 0.0052 µM).

`N#Cc1cc([N+](=O)[O-])ccc1-n1ccc2c3c(N)nc(N)nc3ccc21` [Example 79] gave an MIC (P. vulgaris 6896) of over 250 µg/mL, an MIC (E. coli 9637) of 15.6 µg/mL (≈ 45.2 µM) and an MIC (S. aureus Smith) of 0.488 µg/mL (≈ 1.41 µM). It also gave an MIC (S. paratyphi 11737) of over 250 µg/mL, an MIC (S. aureus 53-180) of 0.488 µg/mL (≈ 1.41 µM) and an MIC (K. pneumoniae 10031) of 1.95 µg/mL (≈ 5.65 µM). For the same compound, the MIC (N. catarrhalis 8193) was 0.244 µg/mL (≈ 0.707 µM).

Work on `Nc1nc(N)c2c(ccc3c2ccn3-c2ccccn2)n1` [Example 83] yielded an MIC (P. vulgaris 6896) of 0.976 µg/mL (≈ 3.53 µM), an MIC (E. coli 9637) of 0.488 µg/mL (≈ 1.77 µM) and an MIC (S. aureus Smith) of 0.976 µg/mL (≈ 3.53 µM). The MIC (S. paratyphi 11737) was 0.976 µg/mL (≈ 3.53 µM), the MIC (S. aureus 53-180) was 0.488 µg/mL (≈ 1.77 µM) and the MIC (K. pneumoniae 10031) was 0.244 µg/mL (≈ 0.883 µM). The MIC (N. catarrhalis 8193) was 0.0076 µg/mL (≈ 0.0275 µM).

In the case of `Nc1nc(N)c2c(ccc3c2ccn3-c2ncccn2)n1` [Example 84], the MIC (P. vulgaris 6896) is reported as over 250 µg/mL, the MIC (E. coli 9637) is reported as 7.81 µg/mL (≈ 28.2 µM) and the MIC (S. aureus Smith) is reported as 15.6 µg/mL (≈ 56.3 µM). The MIC (S. paratyphi 11737) was over 250 µg/mL, the MIC (S. aureus 53-180) was 3.9 µg/mL (≈ 14.1 µM) and the MIC (K. pneumoniae 10031) was 0.976 µg/mL (≈ 3.52 µM). It also gave an MIC (N. catarrhalis 8193) of 0.061 µg/mL (≈ 0.22 µM).

Work on `Nc1nc(N)c2c(ccc3c2ccn3-c2cnccn2)n1` [Example 85] yielded an MIC (P. vulgaris 6896) of 3.9 µg/mL (≈ 14.1 µM), an MIC (E. coli 9637) of 0.976 µg/mL (≈ 3.52 µM) and an MIC (S. aureus Smith) of 3.9 µg/mL (≈ 14.1 µM). For the same compound, the MIC (S. paratyphi 11737) was 3.9 µg/mL (≈ 14.1 µM), the MIC (S. aureus 53-180) was 1.95 µg/mL (≈ 7.03 µM) and the MIC (K. pneumoniae 10031) was 0.976 µg/mL (≈ 3.52 µM). The MIC (N. catarrhalis 8193) was 0.122 µg/mL (≈ 0.44 µM).

Work on `Nc1nc(N)c2c(ccc3c2ccn3-c2ccc3ccccc3n2)n1` [Example 86] yielded an MIC (P. vulgaris 6896) of over 250 µg/mL, an MIC (E. coli 9637) of over 250 µg/mL and an MIC (S. aureus Smith) of over 250 µg/mL. For the same compound, the MIC (S. paratyphi 11737) was over 250 µg/mL, the MIC (S. aureus 53-180) was over 250 µg/mL and the MIC (K. pneumoniae 10031) was over 250 µg/mL. For the same compound, the MIC (N. catarrhalis 8193) was 0.122 µg/mL (≈ 0.374 µM).

Work on `Nc1nc(N)c2c(ccc3c2ccn3-c2ccnc3ccccc23)n1` [Example 87] yielded an MIC (P. vulgaris 6896) of 1.95 µg/mL (≈ 5.97 µM), an MIC (E. coli 9637) of 0.488 µg/mL (≈ 1.5 µM) and an MIC (S. aureus Smith) of 0.031 µg/mL (≈ 0.095 µM). The MIC (S. paratyphi 11737) was 0.976 µg/mL (≈ 2.99 µM), the MIC (S. aureus 53-180) was 0.0152 µg/mL (≈ 0.0466 µM) and the MIC (K. pneumoniae 10031) was 0.031 µg/mL (≈ 0.095 µM). The MIC (N. catarrhalis 8193) was 0.031 µg/mL (≈ 0.095 µM).

In the case of `Cc1cc(-n2ccc3c4c(N)nc(N)nc4ccc32)nc2ccccc12` [Example 88], the MIC (P. vulgaris 6896) is reported as over 250 µg/mL, the MIC (E. coli 9637) is reported as 62.5 µg/mL (≈ 184 µM) and the MIC (S. aureus Smith) is reported as 62.5 µg/mL (≈ 184 µM). The MIC (S. paratyphi 11737) was over 250 µg/mL, the MIC (S. aureus 53-180) was 31.3 µg/mL (≈ 92 µM) and the MIC (K. pneumoniae 10031) was 31.3 µg/mL (≈ 92 µM). It also gave an MIC (N. catarrhalis 8193) of 0.061 µg/mL (≈ 0.179 µM).

For `Nc1nc(N)c2c(ccc3c2ccn3-c2ccnc3cc(Cl)ccc23)n1` [Example 89], the MIC (P. vulgaris 6896) was 250 µg/mL (≈ 693 µM), the MIC (E. coli 9637) was 15.6 µg/mL (≈ 43.2 µM) and the MIC (S. aureus Smith) was 0.488 µg/mL (≈ 1.35 µM). For the same compound, the MIC (S. paratyphi 11737) was over 250 µg/mL, the MIC (S. aureus 53-180) was 0.122 µg/mL (≈ 0.338 µM) and the MIC (K. pneumoniae 10031) was 0.488 µg/mL (≈ 1.35 µM). It also gave an MIC (N. catarrhalis 8193) of 0.244 µg/mL (≈ 0.676 µM).

With `Nc1nc(N)c2c(ccc3c2ccn3-c2ccnc3cc(C(F)(F)F)ccc23)n1` [Example 90] the MIC (P. vulgaris 6896) was 250 µg/mL (≈ 634 µM), the MIC (E. coli 9637) was 0.244 µg/mL (≈ 0.619 µM) and the MIC (S. aureus Smith) was 0.122 µg/mL (≈ 0.309 µM). It also gave an MIC (S. paratyphi 11737) of 31.3 µg/mL (≈ 79.4 µM), an MIC (S. aureus 53-180) of 0.031 µg/mL (≈ 0.0786 µM) and an MIC (K. pneumoniae 10031) of 0.244 µg/mL (≈ 0.619 µM). It also gave an MIC (N. catarrhalis 8193) of 0.031 µg/mL (≈ 0.0786 µM).

With `Cc1cc(-n2ccc3c4c(N)nc(N)nc4ccc32)c2ccccc2n1` [Example 91] the MIC (P. vulgaris 6896) was 3.9 µg/mL (≈ 11.5 µM), the MIC (E. coli 9637) was 1.95 µg/mL (≈ 5.73 µM) and the MIC (S. aureus Smith) was 0.061 µg/mL (≈ 0.179 µM). For the same compound, the MIC (S. paratyphi 11737) was 1.95 µg/mL (≈ 5.73 µM), the MIC (S. aureus 53-180) was 0.061 µg/mL (≈ 0.179 µM) and the MIC (K. pneumoniae 10031) was 0.061 µg/mL (≈ 0.179 µM). The MIC (N. catarrhalis 8193) was 0.031 µg/mL (≈ 0.0911 µM).

`Cc1nc2ccccc2nc1-n1ccc2c3c(N)nc(N)nc3ccc21` [Example 92] was tested, and the MIC (P. vulgaris 6896) was over 250 µg/mL, the MIC (E. coli 9637) was 7.81 µg/mL (≈ 22.9 µM) and the MIC (S. aureus Smith) was 1.95 µg/mL (≈ 5.71 µM). It also gave an MIC (S. paratyphi 11737) of over 250 µg/mL, an MIC (S. aureus 53-180) of 0.488 µg/mL (≈ 1.43 µM) and an MIC (K. pneumoniae 10031) of 0.976 µg/mL (≈ 2.86 µM). For the same compound, the MIC (N. catarrhalis 8193) was 0.122 µg/mL (≈ 0.357 µM).

In the case of `Nc1nc(N)c2c(ccc3c2ccn3-c2ccccc2C(F)(F)F)n1` [Example 93], the MIC (P. vulgaris 6896) is reported as 1.95 µg/mL (≈ 5.68 µM), the MIC (E. coli 9637) is reported as 0.244 µg/mL (≈ 0.711 µM) and the MIC (S. aureus Smith) is reported as 0.061 µg/mL (≈ 0.178 µM). The MIC (S. paratyphi 11737) was 0.976 µg/mL (≈ 2.84 µM), the MIC (S. aureus 53-180) was 0.031 µg/mL (≈ 0.0903 µM) and the MIC (K. pneumoniae 10031) was 0.061 µg/mL (≈ 0.178 µM). The MIC (N. catarrhalis 8193) was 0.0076 µg/mL (≈ 0.0221 µM).

`Nc1nc(N)c2c(ccc3c2ccn3-c2ccc([N+](=O)[O-])cc2C(F)(F)F)n1` [Example 94] was tested, and the MIC (P. vulgaris 6896) was 125 µg/mL (≈ 322 µM), the MIC (E. coli 9637) was 31.3 µg/mL (≈ 80.6 µM) and the MIC (S. aureus Smith) was 0.122 µg/mL (≈ 0.314 µM). It also gave an MIC (S. paratyphi 11737) of 62.5 µg/mL (≈ 161 µM), an MIC (S. aureus 53-180) of 0.122 µg/mL (≈ 0.314 µM) and an MIC (K. pneumoniae 10031) of 0.488 µg/mL (≈ 1.26 µM). The MIC (N. catarrhalis 8193) was 0.061 µg/mL (≈ 0.157 µM).
